Patent publication US5858980A, “Peptide fragments of myelin basic protein” (Autoimmune, Inc., priority 1995, dated 1999)

Key:
[1] = tested on: short term T-cell lines from peripheral blood mononuclear cells; experiment: T-cell line reactivity to MBP, PLP and MBP peptides (proliferation assay); assay type: cell-based, human; conditions: for mean frequency of T-cell lines reactive to the peptide, MS vs controls (FIG. 1): MS patients compared with combined normal and other neurologic disease controls; for MEAN FREQUENCY Ag REACTIVE LINES: mean +/- SEM
Experimental: A rapid T-cell cloning technique was used to examine whether there were immunodominant epitopes on human MBP reactive with Class II MHC phenotypes and the frequency of such reactivity. A total of 15,824 short term T-cell lines were generated from 51 human subjects by culturing peripheral blood mononuclear cells ([…]) with purified MBP (100 μg) followed 3 days later, and then every 3-4 days, by the addition of interleukin-2 (IL-2; from ABI, Columbia, Md.) and 2 units recombinant interleukin-4 (IL-4; Genzyme, Boston, Mass.). On Day 13 of culture, an aliquot from each line was tested for reactivity to MBP using the following proliferation assay: T-cell clones (1×10^5 cells/well) were plated in triplicate and cocultured with appropriate stimuli (i.e. 100 μg whole MBP or 5% IL-2) for 72 hours at 37° C., 90% humidity, 5% CO2, in 96 well flat bottomed microtiter plates (Costar). The cells were pulsed with 2 μCi [^3 H]TdR (2 Ci/mmole, New England Nuclear, Boston, Mass.) for the last 18 hours of culture. APCs were prepared by pulsing human Epstein-Barrvirus transformed human B-cells (the virus being commercially available from ATCC) or L-cells which are mouse cells transfected with human DR2 (L-cells are commercially available from ATCC under accession No. ATCC-CCL1 and can be transfected according to the method of Wilkinson, D. et al, J. Exp. Med., 1988, 167:1442-1458 using DNA encoding DR2 as per Wu, S. et al J. Immunol., 1987, 138:2953). B-cells or L-cells were used at 1×10^6 cells/well in complete media either in the presence or absence of 40 pM MBP or phospholipid protein (PLP) for 2 hours at 37° C., washing twice with 4° C. Hanks (Whittaker), followed by irradiation with 5000 rad. at 4° C. To stimulate T-cells without accessory APCs, 2 μM of MBP, PLP, or the appropriate fragment was added directly to the cells for the duration of the culture: 48 hours, followed by pulsing […] and then harvesting. Ten thousand APC's were used for 100,000 T-cell clones.
T-cell lines shown to be reactive to MBP or PLP were then tested using the same technique for reactivity to overlapping oligopeptide 20-mers encompassing the human MBP sequence as shown in Table 1 above. MBP and PLP reactivity frequency analysis was performed on patients with definite, relapsing-remitting MS (as diagnosed by Magnetic Resonance Imaging (MRI) and clinical examination), as well as on subjects with other neurologic diseases and on normal subjects (all age- and sex-matched to the MS patients).

[2] = tested on: actively induced EAE; experiment: suppression of actively induced EAE (MBP/CFA immunization); assay type: in vivo, Lewis rats
[3] = other neurological disease (n = 10)

Molecule: 143-168: human MBP fragment of amino acids 143-168, second immunodominant domain (RHGSKYLATASTMDHARHGFLPRHRD; UniProt P02686 143-168, looked up, fragment)
- mean frequency of T-cell lines reactive to the peptide, MS vs controls (FIG. 1) [1]: both MS and control subjects showed high frequencies
- MBP-reactive cell lines that reacted with either MBP residues 84-102 or 143-168 ([1]; cell lines from patients with MS): 70-80%
- MBP-reactive T-cell lines that recognized either the 84-102 or the 143-168 peptide ([1]; control groups): about 34%
- Peptide Reactivity (Fraction of MBP-Reactive Lines) ([1]; subject NS-dd, stimulus IL-2): 1/2
- Peptide Reactivity (Fraction of MBP-Reactive Lines) ([1]; subject NS-dd, stimulus MBP): 6/12
- Peptide Reactivity (Fraction of MBP-Reactive Lines) ([1]; subject NS-jl, stimulus IL-2): 5/12
- Peptide Reactivity (Fraction of MBP-Reactive Lines) ([1]; subject NS-kw, stimulus MBP): 5/8
- Peptide Reactivity (Fraction of MBP-Reactive Lines) ([1]; subject five, stimulus IL-2): 5/6
- Peptide Reactivity (Fraction of MBP-Reactive Lines) ([1]; subject five, stimulus MBP): 6/7
- Peptide Reactivity (Fraction of MBP-Reactive Lines) ([1]; subject seven, stimulus IL-2): 2/3
- Peptide Reactivity (Fraction of MBP-Reactive Lines) ([1]; subject seven, stimulus MBP): 5/8
- Peptide Reactivity (Fraction of MBP-Reactive Lines) ([1]; subject six, stimulus IL-2): 1/2
- Peptide Reactivity (Fraction of MBP-Reactive Lines) ([1]; subject three, stimulus IL-2): 2/2
- Peptide Reactivity (Fraction of MBP-Reactive Lines) ([1]; subject three, stimulus MBP): 2/2
- Peptide Reactivity (Fraction of MBP-Reactive Lines) ([1]; subject two, stimulus IL-2): 4/4
- Peptide Reactivity (Fraction of MBP-Reactive Lines) ([1]; subject two, stimulus MBP): 8/10

Molecule: HHPARTAHYGSLPQKSEGRT [61-82, human MBP amino acid residues 61-82]
- mean frequency of T-cell lines reactive to the peptide, MS vs controls (FIG. 1) [1]: Significant but less striking increases

Molecule: guinea pig MBP peptide 131-150: control guinea pig MBP peptide (DYKSKGFKGAHDAQGTLSKI; UniProt P25188 131-150, looked up, fragment)
- suppression of EAE via IV tolerization ([2]; intravenous administration prior to immunization (FIG. 7)): did not suppress
- suppression of EAE via oral tolerization ([2]; oral administration prior to immunization (FIG. 7)): did not suppress

B1: PLP: proteolipid protein, myelin autoantigen (protein, UniProt P60201 2-277, looked up)
Myelin proteolipid protein: GLLECCARCLVGAPFASLVATGLCFFGVALFCGCGHEALTGTEKLIETYFSKNYQDYEYLINVIHAFQYVIYGTASFFFLYGALLLAEGFYTTGAVRQIFGDYKTTICGKGLSATVTGGQKGRGSRGQHQAHSLERVCHCLGKWLGHPDKFVGITYALTVVWLLVFACSAVPVYIYFNTWTTCQSIAFPSKTSASIGSLCADARMYGVLPWNAFPGKVCGSNLLSICKTAEFQMTFHLFIAAFVGAAATLVSLLTFMIAATYNFAVLKLMGRGTKF
- #Ag REACTIVE LINES / TOTAL # LINES ([1]; MS patients (n = 23)): 20/432
- MEAN FREQUENCY Ag REACTIVE LINES ([1]; MS patients (n = 23), per-subject reactive/total lines): 3.34 ± 1.56
- #Ag REACTIVE LINES / TOTAL # LINES [1, 3]: 3/384
- MEAN FREQUENCY Ag REACTIVE LINES [1, 3]: 0.9 ± 0.62
